One test addresses T1, mKCNQ2 channels (Mus musculus, UniProt Q9Z351).
T1 construct: expressed in transfected cells
The test can be described thus: KCNQ whole-cell patch-clamp recordings, HEK 293 stable cell line expressing mKCNQ2 channels. To be noted: mKCNQ2 currents, HEK 293, whole-cell patch clamp; for Imax (%): Hill fit maximum current; for EC50: at −40 mV. It is filed as cell-based. Here is the method: Whole-cell patch-clamp recordings were made from an HEK 293 stable cell line expressing mKCNQ2 channels, maintained in culture for 1–2 days. Patch pipettes had initial resistances of 2.5–4 MΩ. Currents were recorded with an EPC-9 amplifier (HEKA, Lambrecht, Germany) controlled with software (Pulse, HEKA) run on a standard lab PC. Series resistance compensation was used during current recording, and set at 80%. The series resistance (R) and cell capacitance (C) were determined electronically by subtracting the capacitive currents at the onset and offset of a 5 mV voltage step. The cancellation of whole-cell capacitive transients was virtually complete in all cells. Analog current signals were low-pass filtered at 2.9 kHz using a four-pole Bessel filter −3 dB) and stored on a local network server computer at a sampling rate of […]. All recordings were performed at room temperature (20–22° C.). The pipette solution contained (mM): KCl, 150; CaCl2, 2.5; EGTA, 5; MgCl2, 1; HEPES, 10; pH to 7.3 with KOH, and Osmolality of 290–300 mOsm. The extracellular solution contained (mM): NaCl, 140; KCl, 2.5; CaCl2, 2.5; MgCl2, 1; glucose, 10; HEPES, 10; pH to 7.3 with NaOH, and Osmolality of 305–310 mOsm
Concentration response data were generated by measuring the difference in the steady-state amplitude of current in the presence of compound at the end of a 600 ms voltage-clamp step from a holding potential of −80 mV. The concentration-response data were fitted with Hill-type equations: I=Imax/(1+EC50/[A]^nH), where I is the steady-state current at a given concentration of agonist [A]; and Imax, EC50 and nH are parameters estimated from the curve fit. In some cases the concentration-response data were fitted with equations consisting of the sum of two Hill-type components. Current-voltage (I/V) relationships for agonist-evoked currents were obtained by performing 600 ms voltage steps (−110 mV to +40 mV) in the absence and presence of agonist.
In general terms: Patch clamp records ionic current or voltage across a cell membrane.

The test system of test [1] is peripheral mononeuropathy nerve injury-induced tactile allodynia. Description: Chung model of neuropathic pain (Chung surgery and von Frey test). The class given is in vivo, male Sprague Dawley rats. Particulars: i.v., rat, von Frey thresholds over 90 min post-drug, % MPE (Drug AUC) − % MPE (Vehicle AUC). Here is the method:
To test agents for activity against peripheral mononeuropathy nerve injury-induced tactile allodynia, male Sprague Dawley rats (wt. 120–160 g) were surgically prepared with unilateral tight ligation of spinal nerves L5 and L6 following the method of Kim and Chung (Kim S. H., Chung J. M. (1992) Pain, September; 50(3):355–63). After 3–4 weeks recovery, paw withdrawal to light touch was assessed as described by Chaplan et al. (Chaplan S. R., et al., (1994) J. Neurosci Methods, July; 53(1):55–63). In brief, rats are placed in a plastic cage with a wire mesh bottom and allowed to acclimate for 15–30 minutes, until cage exploration and grooming stops. […] After acclimation, baseline von Frey thresholds were assessed for the injured hindpaw at −15 min. […] Following drug administration, von Frey thresholds are measured at 15, 30, 60 and 90 min. Data were analyzed by a 2-way repeated measures analysis of variance followed by Dunnett's test (p<0.05). […]
Reversal of neuropathic pain behavior may be expressed as a percentage (0–100%) of the maximum possible effect, over and above the vehicle effects. […]
For example, a compound which immediately reversed neuropathic pain behavior to normal levels, such that animals only responded to the highest von Frey filament (15 g), and maintained normal levels through out the post-drug testing period (90 min) would be calculated as Δ%MPE=100%.

Molecules are shown by their SMILES.

As a reminder, the EC50 is the concentration giving half of the maximal effect. Regarding `C[C@H](NC(=O)C=Cc1ccccc1)c1cccc(-n2cccn2)c1` [Example 31, (S)-3-Phenyl-N-[1-(3-pyrazol-1-yl-phenyl)-ethyl]-acrylamide], at mKCNQ2 channels, the “Imax (%)” value is 3364% and the EC50 stood at 1.24 µM.

On to `NCC1(CC(=O)O)CCCCC1` [Gabapentin, gabapentin, reference compound], for which the “AUC (Δ % MPE)” value in test [1] (100 mg/kg) is 50 (100 mg/kg, i.v.) Δ % MPE.

For the compound `C[C@H](NC(=O)/C=C/c1ccccc1F)c1cccc(-n2cccn2)c1` [Example 4, (S)-3-(2-Fluoro-phenyl)-N-[1-(3-pyrazol-1-yl-phenyl)-ethyl]-acrylamide], the “AUC (Δ % MPE)” value in test [1] (3 mg/kg) is recorded as 24 (3 mg/kg, i.v.) Δ % MPE. Besides, at mKCNQ2 channels, the “Imax (%)” value amounted to 1158% and the EC50 worked out at 0.123 µM.

For the compound `C[C@H](NC(=O)CCCc1ccccc1)c1cccc(-c2cccnc2)c1` [Example 17, (S)-4-Phenyl-N-[1-(3-pyridin-3-yl-phenyl)-ethyl]-butyramide], on mKCNQ2 channels, the “Imax (%)” value is given as 172% and the EC50 came to 0.0007 µM.

(Values after patent US7135472B2, “3-Heterocyclic benzylamide derivatives as potassium channel openers” (Bristol-Myers Squibb Company, priority 2002, dated 2006).)
